In patent US11279708B2, “Amidino- and amino-rocaglates as novel translation inhibitors and anticancer agents” (priority 2019, dated 2022):

How the values were obtained:
HEK 293 cells = assay: in cellula translation of transfected (AG)10- and (UC)10-FF/HCV/Ren mRNA; type: cell-based; details: compound added 1 h after mRNA transfection, 6 h exposure
Text: We next asked if differences in behavior among rocaglates towards the (AG)10- and (UC)10-reporters observed in vitro also extended in cellula (FIG. 26B). This was important since in cells, mRNA transcripts need to compete for components of the translation initiation machinery from a complex cellular mRNA pool and this scenario is difficult to recapitulate in experiments using cell-free extracts. Following mRNA transfections, cells were exposed to compound and luciferase activity determined.
RNA Transfections. HEK 293 cells were transfected in a 24 well plate with 0.25 μg/well of in vitro synthesized capped m^7GpppG(AG)10-FF/HCV/Ren or m^7GpppG(UC)10FF/HCV/Ren mRNA and 1 h later were exposed to the indicated concentrations of compounds for an additional 6 h. Following this, extracts were prepared using passive lysis buffer (PLB, Promega) and luciferase activity measured on a Berthold Lumt LB 9507 luminometer.
FIGS. 26A-26B. In cellula activity of rocaglates. 26A. Cytotoxicity of rocaglates towards NIH/3T3 (grey circle) and the NIH/3T3 rocaglate-resistant line, eIF4A^em1JP(redtriangle). Cells were exposed to 40 nM compound for 4 days and viability was measured using the SRB assay. n=3±SD. 26B. Rocaglates show different sequence preferences for inhibiting cap-dependent translation in cellula. HEK 293 cells were transfected with 0.5 μg of in vitro synthesized capped (AG)10-FF/HCV/Ren or (UC)10-FF/HCV/Ren mRNA and 1h later exposed to the indicated concentrations of compounds for an additional 6 h, at which time extracts were prepared and luciferase activity measured. n=3 SD.
FIG. 28. In cellula dose-response of (AG)10- and (UC)10-FF/HCV/Ren mRNAs to hippuristanol and pateamine. Firefly and renilla luciferase activity in response to the indicated compound concentrations (relative to DMSO controls) following mRNA transfections in 293 cells. n=3±SD.

eIF4A1:poly r(AG)8 RNA = biological target: T1, eIF4A1:poly r(AG)8 RNA (Homo sapiens, UniProt P60842); assay: fluorescence polarization (FP) assay, eIF4A1 binding to FAM-labelled RNA; details: 500 nM eIF4A1, 10 nM FAM-labelled RNA, screen at 10 μM compound
T1 construct: His6 (N); made in house; host or cells: E. coli BL21 (DE3)
Text: Rocaglates similarly enhance RNA binding of eIF4A1 and eIF4A2. In order to rapidly evaluate the ability of rocaglates to stimulate binding of eIF4A to RNA, a fluorescence polarization (FP) assay using a FAM (fluorescein amidite)-labelled RNA probe (FIG. 18A) was used. […] Due to the high degree of shared amino acid identity between the two paralogs, their apparent similarity with respect to RNA binding activity and response to CR-1-31-B (23), and the fact that eIF4A1 is essential but eIF4A2 is not, eIF4A1 was used in the majority of our subsequent experiments.
Fluorescence Polarization (FP) Assays. Unless otherwise specified, eIF4A (500 nM) was incubated with 10 nM FAM-labelled RNA for 30 min in FP buffer (14.4 mM HEPES-NaOH (pH 8), 108 mM NaCl, 1 mM MgCl2, 14.4% glycerol, 0.1% DMSO, 2 mM DTT, 1 mM AMPPNP) at room temperature in black low volume 384 well plates (Corning 3820). FP readings were performed on a Pherastar FS microplate reader (BMG Labtech).
FIGS. 19A-19C. Rocaglate activity profiling. 19A. Assessing eIF4A1:poly r(AG)8 (SEQ ID NO: 2) RNA binding by FP in the presence of 10 μM rocaglate. Values are expressed relative to vehicle controls and data is rank ordered. n=3±SD. 19B. The change in polarization obtained with eIF4A1:poly r(AG)8 (SEQ ID NO: 2) and eIF4A2:poly r(AG)8 (SEQ ID NO: 2) RNA. Pearson r=0.814; p<0.0001. 19C. Inhibition of cap-dependent translation by rocaglates was measured using the indicated mRNA bicistronic reporter (4 ng/ul) in Krebs-2 extracts at a final compound concentration of 2 μM. n=3±SD.
FIG. 21. Assessing stimulation of eIF4A1:RNA binding by rocaglates and pateamine. FAM-labelled RNA was incubated in the presence of 500 nM eIF4A1 and the indicated concentrations of compound for 30 min, after which time FP measurements were taken. Limitations in WGD-57-591 availability prevented us from extending the titrations to 100 μM. The change in FP obtained relative to vehicle controls is presented. n=3±SD. FP results of competition assays in which preformed eIF4A1:rocaglate:FAM-poly r(AG)10 complexes were incubated in the presence of poly r(AG)10 (SEQ ID NO: 39) and dissociation measured as a function of time. n=3±SD.

eIF4A1 = biological target: T2, eIF4A1 (Oryctolagus cuniculus, UniProt P29562); assay: RNA pulldowns (RPDs) with biotinylated RNA baits in translation extracts; type: binding, Rabbit; details: 500 nM rocaglate, retic lysate
T2 construct: Rabbit reticulocyte lysates (Promega) were pre-incubated with 500 nM of the indicated compound; tissue Promega; host or cells: rabbit reticulocyte lysate
Description: To determine the ability of rocaglates to recruit eIF4A to RNA in translation extracts, RNA pulldowns (RPDs) using 30 nt polypurine—or polypyrimidine-biotinylated RNA baits were performed. RNA baits were added to in vitro translation extracts in the presence or absence of rocaglate followed by purification using immobilized streptavidin. […] When the RPDs were performed using ApppG-capped RNA with purified eIF4A1 or eIF4F rather than translation extracts, an increase in eIF4A1:polypyrimidine RNA association with silvestrol was not observed (FIG. 25B).
RNA Pull Down (RPD) Experiments. Rabbit reticulocyte lysates (Promega) were pre-incubated with 500 nM of the indicated compound for 15 minutes at 30° C. prior to the addition of m7GpppG- or ApppG-capped biotinylated RNAs (added to a final concentration of 1 μM biotinylated RNA bait). The reactions were incubated for an additional 15 minutes at 30° C. and then diluted 10× with ice cold wash buffer (0.5% v/v NP-40, 50 mM HEPES (pH 7.3), 150 mM KCl, 2 mM EDTA, 2 mM MgC2,). Magnetic streptavidin beads (NEB) were used to capture the biotinylated RNA baits and the reactions were incubated end over end for 1 hour at 4° C. The beads were then washed three times with ice cold wash buffer (10 minutes per wash) and the RNA bound proteins were eluted by digesting with 50 U of RNaseI (Ambion, AM2294) for 15 minutes at 37° C. Eluted proteins were analyzed by Western blotting.
FIGS. 25A-25B. […] 25A. RPDs performed with the indicated m^7GpppG- or ApppG-capped RNA species incubated in the presence of retic lysate and either vehicle or 500 nM rocaglate. 25B. RPDs performed with m^7GpppG-capped RNA species incubated in the presence of recombinant eIF4A (125 nM) eIF4F or Krebs-2 extracts and either vehicle or 500 nM silvestrol.

T2 sequence (P29562 whole entry): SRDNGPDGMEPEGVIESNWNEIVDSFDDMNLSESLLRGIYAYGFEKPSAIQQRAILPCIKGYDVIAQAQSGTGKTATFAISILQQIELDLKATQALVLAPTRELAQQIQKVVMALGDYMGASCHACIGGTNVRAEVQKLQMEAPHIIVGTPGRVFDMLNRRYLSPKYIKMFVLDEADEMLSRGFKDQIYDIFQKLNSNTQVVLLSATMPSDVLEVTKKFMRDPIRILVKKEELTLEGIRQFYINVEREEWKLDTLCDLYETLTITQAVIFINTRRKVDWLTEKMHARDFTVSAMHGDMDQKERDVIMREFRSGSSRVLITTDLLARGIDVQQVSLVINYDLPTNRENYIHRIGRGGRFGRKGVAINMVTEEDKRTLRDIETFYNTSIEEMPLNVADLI
T1 sequence (P60842 whole entry, species assumed): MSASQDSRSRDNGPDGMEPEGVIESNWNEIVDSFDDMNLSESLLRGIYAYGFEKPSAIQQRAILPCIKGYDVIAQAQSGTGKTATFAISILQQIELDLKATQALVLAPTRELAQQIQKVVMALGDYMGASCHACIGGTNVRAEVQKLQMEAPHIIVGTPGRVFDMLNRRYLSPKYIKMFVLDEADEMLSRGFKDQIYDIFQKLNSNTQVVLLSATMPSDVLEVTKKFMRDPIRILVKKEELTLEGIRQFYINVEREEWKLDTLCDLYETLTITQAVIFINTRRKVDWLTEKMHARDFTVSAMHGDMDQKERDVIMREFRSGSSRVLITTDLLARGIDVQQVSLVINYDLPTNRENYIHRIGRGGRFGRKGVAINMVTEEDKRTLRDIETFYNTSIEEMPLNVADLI

Structure (SMILES)	inhibition of (AG)10 versus (UC)10 reporter in cellula (in words) (HEK 293 cells)	stimulation of eIF4A1:RNA binding (in words) (eIF4A1:poly r(AG)8 RNA)	recruitment of eIF4A1 to RNA baits (in words) (eIF4A1)	stimulation of eIF4A1:RNA binding (in words) (eIF4A1:poly r(AG)8 RNA; listed as Silvestrol)
COC(=O)[C@@H]1[C@@H](c2ccccc2)[C@]2(c3ccc(OC)cc3)Oc3cc(OC)cc(OC)c3[C@@]23N=C(C)N[C@@]13O [9b]	slight preference for inhibiting the (AG)10-FF/HCV/Ren reporter mRNA			
CONC(=O)[C@H]1[C@@H](O)[C@@]2(O)c3c(OC)cc(OC)cc3O[C@@]2(c2ccc(OC)cc2)[C@@H]1c1ccccc1 [CR-1-31-B]	showed preference for inhibiting (AG)10-FF/HCV/Ren over (UC)10-FF/HCV/Ren mRNA	preferentially stimulated binding of eIF4A1 to RNA harboring polypurine bases	eIF4A1 was recruited to the purine-rich mRNA template in a cap-independent manner	
COC(=O)[C@H]1[C@@H](O)[C@@]2(O)c3c(OC)cc(O[C@@H]4O[C@@H]([C@H](O)CO)CO[C@H]4OC)cc3O[C@@]2(c2ccc(OC)cc2)[C@@H]1c1ccccc1 [silvestrol]	inhibited both reporters equally	less potent across the concentrations tested	induced eIF4A1 binding to both the polypurine and polypyrimidine baits	relatively weak activity
COc1ccc([C@@]23Oc4cc(OC)cc(OC)c4[C@]2(O)[C@H](O)[C@H](C(=O)N(C)C)[C@H]3c2ccccc2)cc1 [RocA, rocaglamide A]		activity similar to CR-1-31-B	eIF4A1 was recruited to the purine-rich mRNA template in a cap-independent manner	
